Laboratory results from PubChem BioAssay (NCI).
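Compound exposure: 48 hours, 5 concentrations, 96-well plates. Definition used: TGI = concentration required for complete inhibition of growth.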

What was measured:
Assay in all cases: NCI anticancer screen, dose series, 48 h
[1] = system: MDA-MB-435
[2] = system: SK-MEL-5 melanoma
[3] = system: 786-0 renal
[4] = system: IGROV1 ovarian
[5] = system: HCC-2998 colon
[6] = system: SF-295 CNS
[7] = system: SF-268 CNS
[8] = system: SNB-19 CNS
[9] = system: SK-OV-3 ovarian
[10] = system: SN12C renal
[11] = system: M14 melanoma

Structure (SMILES) | TGI [1] [µM] | TGI [2] [µM] | TGI [3] [µM] | TGI [4] [µM] | TGI [5] [µM] | TGI [6] [µM] | TGI [7] [µM] | TGI [8] [µM] | TGI [9] [µM] | TGI [10] [µM] | TGI [11] [µM]
COc1ccc2c(c1)CN1C(=N2)CSC1c1cccc(Br)c1 (stereo not drawn) | > 100 | 83.7 | 42.8 | > 100 | 57.8 | > 100 | > 100 | > 100 | > 100 | 62.6 | > 100
ONC1=Nc2cc(Cl)ccc2C(=S)N2CSCC12 (stereo not drawn) | > 100 | > 100 | > 100 | > 100 | > 100 | > 100 | > 100 | > 100 | > 100 | > 100 | > 100
CC1(C)N/C(=C\[N+](=O)[O-])C(C)(C)N1O | > 10 | > 10 | > 10 | > 10 | > 10 | > 10 | > 10 | > 10 | > 10 | > 10 | > 10
COC(=O)c1csc([C@@H](OC(=O)[C@H](C)[C@H](CCCC(C)(Cl)Cl)OC(=O)c2csc([C@H](O)CO)n2)C(C)C)n1 | 26.8 | 31.8 | 28.3 | 24.1 | 22.2 | 29.1 | 34.8 | 26.8 | 29.7 | 4.41 | 31.6
O=[N+]([O-])c1ccc(CSc2nncc3[nH]cnc23)cc1 | > 100 | > 100 | > 100 | > 100 | > 100 | > 100 |  |  | > 100 | > 100 | > 100
COc1c(=O)cc2cc[nH]c3cc[nH]c1c23 | > 100 | > 100 | > 100 | > 100 | > 100 | > 100 |  | > 100 | > 100 | > 100 | > 100
C=CCCON(C(=O)OC(C)(C)C)c1ccccc1 | > 100 | > 100 | > 100 | > 100 |  | > 100 | > 100 | > 100 | > 100 | > 100 | > 100
CC(C)CCNC(=O)c1ccc(CNC(=O)/C=C/c2cccc(Oc3ccccc3)c2)cc1 | 41.6 | > 100 | 69.3 | > 100 | > 100 | > 100 | > 100 | > 100 | 98.3 | > 100 | > 100
O=C1/C(=C\c2ccc([N+](=O)[O-])cc2)N(S(=O)(=O)c2ccccc2)c2ncccc21 | 47.2 | 31.4 | 37.1 | 36.8 |  | 75.4 | 70.7 | 65 | 19.8 | 50.2 | 41.2
O=S(Cc1ccccc1)c1nc2ccccc2nc1-c1cccs1 (stereo not drawn) |  | 23.7 | 23.4 | 29.2 | 26.1 | 52.9 | 51.4 | 39.4 | 85.4 | 28.1 | 25.4
CCOC(=O)CCC(NC(=O)c1ccc(Nc2nc3ccc(C(F)(F)F)cc3nc2-c2ccccc2)cc1)C(=O)OCC (stereo not drawn) | > 100 | > 100 | > 100 | > 100 | > 85.9 | > 100 | > 100 | > 100 |  | > 100 | 46.2
Cc1ccc(C2(O)CSC(=NC34CC5CC(CC(C5)C3)C4)N2C(P(=O)(O)O)P(=O)(O)O)cc1 (stereo not drawn) | > 100 |  | > 100 | > 100 | > 100 | > 100 | > 100 | > 100 | > 100 | > 100 | > 100
Cc1c(-c2ccccc2)cc(O)c2nc3ccccc3n12 | > 100 | > 100 | > 100 | > 100 | > 100 | > 100 |  | > 100 |  | > 100 | > 100
CC(C)(C)C1CCC(=O)/C(=C/CC2CC(=O)N(c3ccccc3)C(=O)C2)C1 (stereo not drawn) | 64.8 | 31.7 | 38.3 | 44.5 | 43.5 | > 100 | 47.1 | 51.6 |  | 41.3 | 
C[C@@H](C(=O)O)N1C(c2ccco2)=C(/C(C=O)=C\c2ccco2)C(=O)/C1=C\c1ccco1 | > 100 | > 100 | > 100 | > 100 |  | > 100 | > 100 | > 100 |  | > 100 | > 100
CC1(C)OCN(c2ccc(N3CCOCC3)cc2)Cn2c1nc1ccccc12 |  |  | > 100 | > 100 | > 100 | > 100 | > 100 | > 100 | > 100 | > 100 | > 100
C=C1C(=O)OC2/C=C(\C(=O)O)CC/C=C(\C)CC(OC(=O)/C=C(\C)CC)C12 (stereo not drawn) |  | 32.9 |  | 40.9 | 33.8 | 31.3 | 30.6 | 33.5 | 37.9 | 31 | 31.2
N#Cc1c(-c2ccc(Cl)cc2)c2c(n(C3OC(CO)C(O)C(O)C3O)c1=S)CCCC2 (stereo not drawn) | > 100 | 80.3 | > 100 | > 100 | > 100 | > 100 | > 100 | > 100 |  | > 100 | > 100
Cc1cccc(Cl)c1NCC(O)CN1CCN(C)CC1 (stereo not drawn) | > 100 | > 100 | > 100 | > 100 | > 100 | > 100 | > 100 | > 100 |  | > 100 | > 100
O=S(=O)(O)c1ccc(N=Nc2ccc3c(S(=O)(=O)O)cccc3c2O)c2ccccc12 | > 100 | > 100 | > 100 | > 100 |  | > 100 | > 100 | > 100 | > 100 | > 100 | > 100
CC12C=CC(C)(C3C(=O)C4C(C(=O)C31)C1(C)C=CC4(C)S1=O)S2=O (stereo not drawn) |  | > 100 | > 100 | > 100 | > 100 | > 100 | > 100 | > 100 | > 100 |  | > 100
